Here are results for 19 compounds from US10875876B2, “Cyclized sulfamoylarylamide derivatives and the use thereof as medicaments for the treatment of hepatitis B” (priority 2015, dated 2020).

Where only a bound is given, the exact number is not on record here.

For one data set, the system named is HBV. Description: anti HBV activity, HepG2.117 cell line, intracellular HBV DNA by realtime PCR. As to conditions: Hepatitis B virus, HepG2.117, 72 h, HepG2.117 cell line (Tet-off), 3 days of treatment, intracellular HBV DNA quantified by realtime PCR; read-out: HBV-AVE-HepG2.117 EC50. Format: cell-based. The gist of the method:
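HepG2.117 cells, a Tet-off line that replicates HBV without doxycycline, were induced and then treated in duplicate with serially diluted compound. After 3 days, intracellular HBV DNA was quantified by real-time PCR with an HBV-specific primer set and probe.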

A short description of data set [1]: Cytotoxicity in HepG2 cells, Resazurin assay. As to conditions: human, HepG2 cells, TOX-HepG2-4 d CC50 (μM), HepG2 cells incubated for 4 days, viability by Resazurin assay.

By EC50 is commonly meant the concentration giving half of the maximal effect. As usually defined, the CC50 is the concentration at which the toxic effect on the cells reaches its halfway point. Read a low CC50 as greater toxicity to the cells. Turning to `Cn1cc2c(c1C(=O)Nc1ccc(F)c(F)c1)OC[C@H](C(O)C1CC1)NS2(=O)=O` (stereo partly drawn) [Compound 105a, (3R)-3-[cyclopropyl(hydroxy)methyl]-N-(3,4-difluorophenyl)-7-methyl-1,1-dioxo-3,4-dihydro-2H-pyrrolo[3,4-b][1,4,5]oxathiazepine-6-carboxamide], the half-maximal effective concentration (EC50) in the data set with HBV is 7 nM. Besides, in data set [1], the cytotoxic concentration (CC50) at 4 days is greater than 25 µM.
The corresponding values for `CC(C)C1CCc2c(cn(C)c2C(=O)Nc2ccnc(C(F)F)c2)S(=O)(=O)N1` (centres unmarked) [Compound 108, N-[2-(difluoromethyl)-4-pyridyl]-3-isopropyl-7-methyl-1,1-dioxo-2,3,4,5-tetrahydropyrrolo[3,4-f]thiazepine-6-carboxamide] are 16 nM and greater than 25 µM.
For `Cc1cc(NC(=O)c2c3c(cn2C)S(=O)(=O)NC(C(C)C)CC3)ccc1F` (centres unmarked) [Compound 109, N-(4-fluoro-3-methyl-phenyl)-3-isopropyl-7-methyl-1,1-dioxo-2,3,4,5-tetrahydropyrrolo[3,4-f]thiazepine-6-carboxamide], in that order: 3 nM and greater than 25 µM.
The corresponding values for `CN(C)CC1COc2c(cn(C)c2C(=O)Nc2ccc(F)c(F)c2)S(=O)(=O)N1` (centres unmarked) [Compound 110, N-(3,4-difluorophenyl)-3-(dimethylaminomethyl)-7-methyl-1,1-dioxo-3,4-dihydro-2H-pyrrolo[3,4-b][1,4,5]oxathiazepine-6-carboxamide] are 200 nM and greater than 25 µM.
With `C[C@H](O)[C@H]1CCc2c(cn(C)c2C(=O)Nc2ccnc(Br)c2)S(=O)(=O)N1` [Compound 111, (3R)—N-(2-bromo-4-pyridyl)-3-[(1S)-1-hydroxyethyl]-7-methyl-1,1-dioxo-2,3,4,5-tetrahydropyrrolo[3,4-f]thiazepine-6-carboxamide], in the data set on HBV, the concentration giving a half-maximal response (EC50) amounted to 89 nM. This compound also had a 50% cytotoxic concentration (CC50) at 4 days in data set [1] greater than 25 µM.
With `Cn1cc2c(c1C(=O)Nc1ccc(F)c(C(F)F)c1)OC[C@H](C(O)C1CC1)NS2(=O)=O` (stereo partly drawn) [Compound 115a, (3R)-3-[cyclopropyl(hydroxy)methyl]-N-[3-(difluoromethyl)-4-fluoro-phenyl]-7-methyl-1,1-dioxo-3,4-dihydro-2H-pyrrolo[3,4-b][1,4,5]oxathiazepine-6-carboxamide], in the data set with HBV, the concentration giving a half-maximal response (EC50) stood at 8 nM. The half-maximal cytotoxic concentration (CC50) at 4 days in data set [1] is greater than 25 µM.
Take `Cn1cc2c(c1C(=O)Nc1ccc(F)c(C#N)c1)CCC(C(C)(O)C(F)(F)F)NS2(=O)=O` (centres unmarked) [Compound 117, N-(3-cyano-4-fluoro-phenyl)-7-methyl-1,1-dioxo-3-(2,2,2-trifluoro-1-hydroxy-1-methyl-ethyl)-2,3,4,5-tetrahydropyrrolo[3,4-f]thiazepine-6-carboxamide]: in the data set on HBV, the concentration giving a half-maximal response (EC50) was found to be 10 nM. The compound also returned a half-maximal cytotoxic concentration (CC50) at 4 days in data set [1] greater than 25 µM.
For `Cn1cc2c(c1C(=O)Nc1ccc(F)c(C#N)c1)CCC(C(C)(F)F)NS2(=O)=O` (centres unmarked) [Compound 118, N-(3-cyano-4-fluoro-phenyl)-3-(1,1-difluoroethyl)-7-methyl-1,1-dioxo-2,3,4,5-tetrahydropyrrolo[3,4-f]thiazepine-6-carboxamide], in that order: 13 nM and greater than 25 µM.
Consider `CC(C)C(O)C1COc2c(cn(C)c2C(=O)Nc2ccc(F)c(C#N)c2)S(=O)(=O)N1` (centres unmarked) [Compound 119a, N-(3-cyano-4-fluoro-phenyl)-3-(1-hydroxy-2-methyl-propyl)-7-methyl-1,1-dioxo-3,4-dihydro-2H-pyrrolo[3,4-b][1,4,5]oxathiazepine-6-carboxamide], for which the EC50 with HBV turned out to be 11 nM. Besides, the CC50 at 4 days in data set [1] was greater than 25 µM.
As to `Cn1cc2c(c1C(=O)Nc1ccc(F)c(C#N)c1)OC[C@H](C(O)C1CC1)NS2(=O)=O` (stereo partly drawn) [Compound 120a, (3R)—N-(3-cyano-4-fluoro-phenyl)-3-[cyclopropyl(hydroxy)methyl]-7-methyl-1,1-dioxo-3,4-dihydro-2H-pyrrolo[3,4-b][1,4,5]oxathiazepine-6-carboxamide], the EC50 in the data set with HBV came to 7 nM. In data set [1], the 50% cytotoxic concentration (CC50) at 4 days was greater than 25 µM.
The corresponding values for `CCC(O)[C@H]1COc2c(cn(C)c2C(=O)Nc2ccc(F)c(C#N)c2)S(=O)(=O)N1` (stereo partly drawn) [Compound 122a, (3R)—N-(3-cyano-4-fluoro-phenyl)-3-(1-hydroxypropyl)-7-methyl-1,1-dioxo-3,4-dihydro-2H-pyrrolo[3,4-b][1,4,5]oxathiazepine-6-carboxamide] are 12 nM and greater than 25 µM.
For `Cn1cc2c(c1C(=O)Nc1ccc(F)c(F)c1)OC[C@@H](C(O)C(F)(F)F)NS2(=O)=O` (stereo partly drawn) [Compound 123, (3S)—N-(3,4-difluorophenyl)-7-methyl-1,1-dioxo-3-(2,2,2-trifluoro-1-hydroxy-ethyl)-3,4-dihydro-2H-pyrrolo[3,4-b][1,4,5]oxathiazepine-6-carboxamide], in that order: 19 nM and greater than 25 µM.
Take `CCC(O)[C@H]1COc2c(cn(C)c2C(=O)Nc2ccc(F)c(C(F)F)c2)S(=O)(=O)N1` (stereo partly drawn) [Compound 124a, (3R)—N-[3-(difluoromethyl)-4-fluoro-phenyl]-3-(1-hydroxypropyl)-7-methyl-1,1-dioxo-3,4-dihydro-2H-pyrrolo[3,4-b][1,4,5]oxathiazepine-6-carboxamide]: the EC50 in the data set on HBV worked out at 5 nM. In data set [1], the cytotoxic concentration (CC50) at 4 days was greater than 25 µM.
As for `COCOC(c1ccccn1)C1COc2c(cn(C)c2C(=O)Nc2ccc(F)c(F)c2)S(=O)(=O)N1` (centres unmarked) [Compound 129, N-(3,4-difluorophenyl)-3-[methoxymethoxy(2-pyridyl)methyl]-7-methyl-1,1-dioxo-3,4-dihydro-2H-pyrrolo[3,4-b][1,4,5]oxathiazepine-6-carboxamide], the EC50 in the data set with HBV worked out at 12 nM. Besides, the half-maximal cytotoxic concentration (CC50) at 4 days in data set [1] is greater than 25 µM.
With `CCC(O)[C@H]1COc2c(cn(C)c2C(=O)Nc2ccc(F)c(F)c2)S(=O)(=O)N1` (stereo partly drawn) [Compound 130a, (3R)—N-(3,4-difluorophenyl)-3-(1-hydroxypropyl)-7-methyl-1,1-dioxo-3,4-dihydro-2H-pyrrolo[3,4-b][1,4,5]oxathiazepine-6-carboxamide], the EC50 in the data set on HBV came out at 18 nM. In data set [1], this compound registered a half-maximal cytotoxic concentration (CC50) at 4 days greater than 25 µM.
In the case of `Cn1cc2c(c1C(=O)Nc1ccc(F)c(F)c1)CCC1(COC1)NS2(=O)=O` [Compound 131, N-(3,4-difluorophenyl)-7-methyl-1,1-dioxo-spiro[4,5-dihydro-2H-pyrrolo[3,4-f]thiazepine-3,3′-oxetane]-6-carboxamide], in the data set on HBV, the EC50 worked out at 23 nM. In data set [1], this compound came in with a CC50 at 4 days greater than 25 µM.
The corresponding values for `Cn1cc2c(c1C(=O)Nc1ccc(F)c(F)c1)C=CC1(COC1)NS2(=O)=O` [Compound 132, N-(3,4-difluorophenyl)-7-methyl-1,1-dioxo-spiro[2H-pyrrolo[3,4-f]-thiazepine-3,3′-oxetane]-6-carboxamide] are 19 nM and greater than 25 µM.
`Cn1cc2c(c1C(=O)Nc1ccc(F)c(F)c1)OCC(C)(C)NS2(=O)=O` [Compound 133, N-(3,4-difluorophenyl)-3,3,7-trimethyl-1,1-dioxo-2,4-dihydropyrrolo-[3,4-b][1,4,5]oxathiazepine-6-carboxamide]: the EC50 with HBV turned out to be 11 nM. This compound also returned a CC50 at 4 days in data set [1] greater than 25 µM.
The corresponding values for `Cn1cc2c(c1C(=O)Nc1ccc(F)c(C#N)c1)OCC(C)(C)NS2(=O)=O` [Compound 135, N-(3-cyano-4-fluoro-phenyl)-3,3,7-trimethyl-1,1-dioxo-2,4-dihydropyrrolo[3,4-b][1,4,5]oxathiazepine-6-carboxamide] are 5 nM and greater than 25 µM.
